Two compounds from ChEMBL document CHEMBL4414582, “Lathyrane, Premyrsinane, and Related Diterpenes from Euphorbia boetica: Effect on in Vitro Neural Progenitor Cell Proliferation” (J Nat Prod, 2019) can be followed below.

Calls of active or inactive are those of the source. No cut-off for these calls is given here.

The nature of series [1]: Effect on self-renewal capacity in mouse neurospheres derived neural precursor cells assessed as neurosphere number at 1 to 10 uM after 72 hrs in presence of bFGF by phase contrast microscopic based analysis. The series is classed as ADME.
The nature of series [2]: Effect on self renewal capacity in mouse neurospheres derived neural precursor cells assessed as neurosphere number at 1 to 10 uM after 72 hrs in presence of EGF and bFGF by phase contrast microscopic based analysis. The series is classed as ADME.
The species entered for series [3] is Mus musculus. Kind of series: Activation of PKC in mouse neurospheres derived neural precursor cells assessed as increase in cell proliferation by measuring increase in neurosphere area at 5 uM after 72 hrs in presence of EGF and bFGF by phase contrast microscopic based analysis.
The nature of series [4]: Effect on self-renewal capacity in mouse neurospheres derived neural precursor cells assessed as neurosphere number at 1 to 10 uM after 72 hrs in presence of EGF by phase contrast microscopic based analysis. The class given is ADME.
Series [5] is described as follows: Effect on cell viability in mouse neurospheres derived neural precursor cells assessed as neurosphere number at 1 to 10 uM after 72 hrs in presence of bFGF and EGF by phase contrast microscopic based analysis.
A short description of series [6]: Effect on cell viability in mouse neurospheres derived neural precursor cells assessed as neurosphere number at 1 to 10 uM after 72 hrs in presence of bFGF by phase contrast microscopic based analysis.
Series [7] is described as follows: Effect on cell viability in mouse neurospheres derived neural precursor cells assessed as neurosphere number at 1 to 10 uM after 72 hrs in presence of EGF by phase contrast microscopic based analysis.
Series [8] is filed under the species Mus musculus. Kind of series: Activation of PKC in mouse neurospheres derived neural precursor cells assessed as increase in cell proliferation by measuring increase in neurosphere size at 5 to 10 uM after 72 hrs in presence of EGF and bFGF by phase contrast microscopic based analysis.
The species entered for series [9] is Mus musculus. Kind of series: Activation of PKC in mouse neurospheres derived neural precursor cells assessed as cell proliferation by measuring neurosphere size at 1 uM after 72 hrs in presence of EGF and bFGF by phase contrast microscopic based analysis.
Series [10] is filed under the species Mus musculus. Kind of series: Activation of PKC in mouse neurospheres derived neural precursor cells assessed as cell proliferation by measuring neurosphere size at 1 to 10 uM after 72 hrs in presence of EGF by phase contrast microscopic based analysis.
The species named for series [11] is Mus musculus. Kind of series: Activation of PKC in mouse neurospheres derived neural precursor cells assessed as increase in cell proliferation by measuring increase in neurosphere size after 72 hrs in presence of EGF and bFGF by phase contrast microscopic based analysis.
For series [12], the species on record is Mus musculus. Kind of series: Activation of PKC in mouse neurospheres derived neural precursor cells assessed as cell proliferation by measuring neurosphere size at 1 to 10 uM after 72 hrs in presence of bFGF by phase contrast microscopic based analysis.

With `C=C1CC[C@H]2[C@@H](/C=C(\C)C(=O)[C@@]3(OC(C)=O)C[C@H](C)[C@H](OC(C)=O)[C@@H]3[C@H]1OC(C)=O)C2(C)C`, the Activity result in series [1], in series [2], in series [4], in series [5], in [6] and in series [7] was “Non-Toxic” throughout. Also, the result in the series listed under Mus musculus [3] was Active.

As to `CC(=O)O[C@@H]1[C@@H]2[C@@H](OC(C)=O)[C@]3(CC[C@H]4[C@@H](/C=C(\C)C(=O)[C@@]2(OC(C)=O)C[C@@H]1C)C4(C)C)CO3`, the result in the series filed under Mus musculus [8] was Active. Besides, the outcome in the series filed under Mus musculus [9], in the series filed under Mus musculus [10] and in the series listed under Mus musculus [12] was inactive. Besides, the Activity result in [1] is “Non-Toxic”; in the series filed under Mus musculus [11], “Dose-dependent effect”; in series [2], “Non-Toxic”; in series [4], “Non-Toxic”; in [5], “Non-Toxic”; in series [6], “Non-Toxic”. Further, in [7], the Activity result is “Non-Toxic”.
